Measurements: PubChem BioAssay (NCI)
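Tested at 5 concentrations; 48 h exposure; 96-well plates; endpoints linearly interpolated, else capped at highest concentration. GI50 is the concentration that inhibits growth by half. At the TGI there is no net growth.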

Key:
Test in all cases: NCI anticancer screen, dose series, 48 h
NCI/ADR-RES ovarian = tested on: NCI/ADR-RES ovarian
OVCAR-3 ovarian = tested on: OVCAR-3 ovarian
SK-MEL-2 melanoma = tested on: SK-MEL-2 melanoma
SNB-75 CNS = tested on: SNB-75 CNS
EKVX NSCLC = tested on: EKVX NSCLC
OVCAR-8 ovarian = tested on: OVCAR-8 ovarian
UACC-62 melanoma = tested on: UACC-62 melanoma
SN12C renal = tested on: SN12C renal
SF-539 CNS = tested on: SF-539 CNS
SW-620 colon = tested on: SW-620 colon
HCT-15 colon = tested on: HCT-15 colon
K-562 leukemia = tested on: K-562 leukemia
KM12 colon = tested on: KM12 colon
T-47D breast = tested on: T-47D breast
NCI-H23 lung = tested on: NCI-H23 lung
LOX IMVI melanoma = tested on: LOX IMVI melanoma
HL-60(TB) leukemia = tested on: HL-60(TB) leukemia
MCF7 breast = tested on: MCF7 breast
MDA-MB-435 = tested on: MDA-MB-435
DU-145 prostate = tested on: DU-145 prostate
NCI-H522 lung = tested on: NCI-H522 lung
HCT-116 colon = tested on: HCT-116 colon
MOLT-4 leukemia = tested on: MOLT-4 leukemia
MALME-3M melanoma = tested on: MALME-3M melanoma
BT-549 breast = tested on: BT-549 breast
IGROV1 ovarian = tested on: IGROV1 ovarian
RXF 393 renal = tested on: RXF 393 renal
NCI-H460 lung = tested on: NCI-H460 lung
HS 578T breast = tested on: HS 578T breast
COLO 205 colon = tested on: COLO 205 colon
HT29 colon = tested on: HT29 colon
A549 NSCLC = tested on: A549 NSCLC
HOP-62 NSCLC = tested on: HOP-62 NSCLC
CAKI-1 renal = tested on: CAKI-1 renal
SF-295 CNS = tested on: SF-295 CNS
UACC-257 melanoma = tested on: UACC-257 melanoma
M14 melanoma = tested on: M14 melanoma
786-0 renal = tested on: 786-0 renal
OVCAR-5 ovarian = tested on: OVCAR-5 ovarian
HOP-92 NSCLC = tested on: HOP-92 NSCLC
RPMI-8226 leukemia = tested on: RPMI-8226 leukemia
SK-MEL-28 melanoma = tested on: SK-MEL-28 melanoma
UO-31 renal = tested on: UO-31 renal
ACHN renal = tested on: ACHN renal
CCRF-CEM leukemia = tested on: CCRF-CEM leukemia
OVCAR-4 ovarian = tested on: OVCAR-4 ovarian
MDA-MB-231 breast = tested on: MDA-MB-231 breast
U251 CNS = tested on: U251 CNS
A498 renal = tested on: A498 renal
SK-MEL-5 melanoma = tested on: SK-MEL-5 melanoma
HCC-2998 colon = tested on: HCC-2998 colon
PC-3 prostate = tested on: PC-3 prostate
NCI-H226 lung = tested on: NCI-H226 lung
SF-268 CNS = tested on: SF-268 CNS

For `NCCNc1nc2ccccc2c2c(=O)c3cc(F)cc(Cl)c3sc12`, the GI50 (NCI/ADR-RES ovarian) was 1810 nM, the TGI (NCI/ADR-RES ovarian) was 3650 nM and the GI50 (OVCAR-3 ovarian) was 1720 nM. It also gave a TGI (OVCAR-3 ovarian) of 3180 nM, a GI50 (SK-MEL-2 melanoma) of 1820 nM and a TGI (SK-MEL-2 melanoma) of 3600 nM. The GI50 (SNB-75 CNS) was 1270 nM, the TGI (SNB-75 CNS) was 2560 nM and the GI50 (EKVX NSCLC) was 1600 nM. It also gave a TGI (EKVX NSCLC) of 3130 nM, a GI50 (OVCAR-8 ovarian) of 1610 nM and a TGI (OVCAR-8 ovarian) of 3570 nM. The GI50 (UACC-62 melanoma) was 1660 nM, the TGI (UACC-62 melanoma) was 3060 nM and the GI50 (SN12C renal) was 1650 nM. The TGI (SN12C renal) was 3170 nM, the GI50 (SF-539 CNS) was 1700 nM and the TGI (SF-539 CNS) was 3080 nM. For the same molecule, the GI50 (SW-620 colon) was 1540 nM, the TGI (SW-620 colon) was 3080 nM and the GI50 (HCT-15 colon) was 1180 nM. The TGI (HCT-15 colon) was 2500 nM, the GI50 (K-562 leukemia) was 261 nM and the TGI (K-562 leukemia) was 1030 nM. The GI50 (KM12 colon) was 1730 nM, the TGI (KM12 colon) was 3240 nM and the GI50 (T-47D breast) was 1550 nM. For the same molecule, the TGI (T-47D breast) was 3480 nM, the GI50 (NCI-H23 lung) was 1750 nM and the TGI (NCI-H23 lung) was 3420 nM. For the same molecule, the GI50 (LOX IMVI melanoma) was 1660 nM, the TGI (LOX IMVI melanoma) was 3170 nM and the GI50 (HL-60(TB) leukemia) was 1880 nM. The TGI (HL-60(TB) leukemia) was 3760 nM, the GI50 (MCF7 breast) was 1520 nM and the TGI (MCF7 breast) was 3130 nM. It also gave a GI50 (MDA-MB-435) of 1730 nM, a TGI (MDA-MB-435) of 3220 nM and a GI50 (DU-145 prostate) of 1730 nM. For the same molecule, the TGI (DU-145 prostate) was 3220 nM, the GI50 (NCI-H522 lung) was 1640 nM and the TGI (NCI-H522 lung) was 3430 nM. For the same molecule, the GI50 (HCT-116 colon) was 694 nM, the TGI (HCT-116 colon) was 1990 nM and the GI50 (MOLT-4 leukemia) was 1820 nM. For the same molecule, the TGI (MOLT-4 leukemia) was 3690 nM, the GI50 (MALME-3M melanoma) was 1830 nM and the TGI (MALME-3M melanoma) was 3350 nM. The GI50 (BT-549 breast) was 1550 nM, the TGI (BT-549 breast) was 2930 nM and the GI50 (IGROV1 ovarian) was 1510 nM. For the same molecule, the TGI (IGROV1 ovarian) was 3010 nM, the GI50 (RXF 393 renal) was 1620 nM and the TGI (RXF 393 renal) was 3160 nM. For the same molecule, the GI50 (NCI-H460 lung) was 1700 nM, the TGI (NCI-H460 lung) was 3250 nM and the GI50 (HS 578T breast) was 1630 nM. For the same molecule, the TGI (HS 578T breast) was 3700 nM, the GI50 (COLO 205 colon) was 1690 nM and the TGI (COLO 205 colon) was 3310 nM. The GI50 (HT29 colon) was 1560 nM, the TGI (HT29 colon) was 3300 nM and the GI50 (A549 NSCLC) was 1790 nM. For the same molecule, the TGI (A549 NSCLC) was 3720 nM, the GI50 (HOP-62 NSCLC) was 1350 nM and the TGI (HOP-62 NSCLC) was 3040 nM. The GI50 (CAKI-1 renal) was 1410 nM, the TGI (CAKI-1 renal) was 2800 nM and the GI50 (SF-295 CNS) was 1730 nM. For the same molecule, the TGI (SF-295 CNS) was 3180 nM, the GI50 (UACC-257 melanoma) was 1850 nM and the TGI (UACC-257 melanoma) was 3720 nM. For the same molecule, the GI50 (M14 melanoma) was 1650 nM, the TGI (M14 melanoma) was 3030 nM and the GI50 (786-0 renal) was 1640 nM. The TGI (786-0 renal) was 3140 nM, the GI50 (OVCAR-5 ovarian) was 1650 nM and the TGI (OVCAR-5 ovarian) was 3100 nM. For the same molecule, the GI50 (HOP-92 NSCLC) was 1390 nM, the TGI (HOP-92 NSCLC) was 3060 nM and the GI50 (RPMI-8226 leukemia) was 1800 nM. The TGI (RPMI-8226 leukemia) was 3820 nM, the GI50 (SK-MEL-28 melanoma) was 1870 nM and the TGI (SK-MEL-28 melanoma) was 3400 nM. It also gave a GI50 (UO-31 renal) of 1220 nM, a TGI (UO-31 renal) of 2490 nM and a GI50 (ACHN renal) of 1630 nM. It also gave a TGI (ACHN renal) of 2990 nM, a GI50 (CCRF-CEM leukemia) of 1310 nM and a TGI (CCRF-CEM leukemia) of 2820 nM. It also gave a GI50 (OVCAR-4 ovarian) of 1700 nM, a TGI (OVCAR-4 ovarian) of 3410 nM and a GI50 (MDA-MB-231 breast) of 1480 nM. It also gave a TGI (MDA-MB-231 breast) of 2930 nM, a GI50 (U251 CNS) of 1220 nM and a TGI (U251 CNS) of 2660 nM. For the same molecule, the GI50 (A498 renal) was 1560 nM, the TGI (A498 renal) was 3310 nM and the GI50 (SK-MEL-5 melanoma) was 2520 nM. The TGI (SK-MEL-5 melanoma) was 6660 nM, the GI50 (HCC-2998 colon) was 1750 nM and the TGI (HCC-2998 colon) was 3450 nM. It also gave a GI50 (PC-3 prostate) of 1420 nM, a TGI (PC-3 prostate) of 2900 nM and a GI50 (NCI-H226 lung) of 9540 nM. For the same molecule, the TGI (NCI-H226 lung) was 31200 nM, the GI50 (SF-268 CNS) was 1570 nM and the TGI (SF-268 CNS) was 3290 nM.
